This passage reports ED50, IC50 and inhibition results from ChEMBL document CHEMBL1128430, “1,1-Bisphosphonate squalene synthase inhibitors: interplay between the isoprenoid subunit and the diphosphate surrogate” (J Med Chem, 1995).

Molecules are shown by their SMILES. Active and inactive are the calls of the source. No cut-off for these calls is given here.

Test [1] has as its target T1, Squalene synthase (Rattus norvegicus) (UniProt Q02769).
T1 sequence (whole entry): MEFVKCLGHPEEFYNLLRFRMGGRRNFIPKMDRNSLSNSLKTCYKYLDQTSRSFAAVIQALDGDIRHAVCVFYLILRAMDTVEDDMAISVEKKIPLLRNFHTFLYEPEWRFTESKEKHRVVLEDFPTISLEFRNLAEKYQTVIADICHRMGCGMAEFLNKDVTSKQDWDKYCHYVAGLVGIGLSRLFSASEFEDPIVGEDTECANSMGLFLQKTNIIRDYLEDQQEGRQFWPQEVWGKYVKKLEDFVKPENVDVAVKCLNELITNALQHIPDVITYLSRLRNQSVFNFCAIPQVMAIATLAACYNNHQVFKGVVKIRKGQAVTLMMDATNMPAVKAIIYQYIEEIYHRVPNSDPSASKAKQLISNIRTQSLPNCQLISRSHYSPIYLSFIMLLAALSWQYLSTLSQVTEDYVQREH
Nature of the test: Effective dose to inhibit rat liver microsomal Squalene Synthase was determined by intravenous administration. For orientation: Microsomes from liver hold many membrane-bound enzymes, among them those of drug oxidation.

Test [2] deals with T2, Squalene synthase (Rattus norvegicus, UniProt Q02769).
T2 sequence (Q02769 whole entry): T1 sequence (whole entry)
Description: Inhibition rat liver microsomal squalene synthase.

The target in test [3] is T1, Squalene synthase (Rattus norvegicus). Nature of the test: Effective dose to inhibit rat liver microsomal Squalene Synthase was determined by peroral administration at 15 mg/kg dose. The class given is organism-based. Details: dose 15 mg/kg.
For test [4] the target is unchanged. Nature of the test: Effective dose to inhibit rat liver microsomal Squalene synthase was determined by peroral administration at a dose of 15 mg/kg; inactive. In kind it is organism-based. The arrangement: dose 15 mg/kg.
For test [5] the target is unchanged. As to conditions: 30 mg/kg.
For test [6] the target is unchanged. Description: Effective dose to inhibit rat liver microsomal Squalene Synthase was determined by peroral administration at a dose of 30 mg/kg; In active. In kind it is organism-based. The arrangement: dose 30 mg/kg.
The target is the same in test [7]. Description: Effective dose to inhibit rat liver microsomal Squalene Synthase was determined by peroral administration.

In general, ED50 refers to the dose that gives a 50% effect, or the effect in half of the subjects. The IC50 is the point on the concentration scale where inhibition reaches its midpoint. Lower therefore signals inhibition by little substance. As usually defined, the inhibition is the percentage by which the read-out fell short of the control. A high value points to a response far below the control.

`CC(C)=CCC/C(C)=C/CC/C(C)=C/CCCCCCC(P(=O)(O)O)P(=O)(O)O` came in with an ED50 in test [1] of 0.13 mg/kg. This compound also returned an IC50 in test [2] of 11.8 nM. Besides, in test [3], the inhibition turned out to be 26%.

As to `CP(=O)(O)C(CCCc1ccc(-c2ccccc2)cc1)P(=O)(O)O` (configuration not stated), the concentration for half-maximal inhibition (IC50) in test [2] was determined as 490 nM.

With `CC(C)=CCC/C(C)=C/CCCCCCC(P(C)(=O)O)P(=O)(O)O` (configuration not stated), the IC50 in test [2] was determined as 374 nM.

Compound `O=P(O)(O)C(CCCc1ccc(-c2ccccc2)cc1)P(=O)(O)CO` (configuration not stated) registered an IC50 in test [2] of 23.9 nM.

The compound `CC(C)=CCC/C(C)=C/CC/C(C)=C/CCCC(P(C)(=O)O)P(=O)(O)O` (configuration not stated) had an IC50 in test [2] of 12.9 nM.

In test [2], `O=C(O)C(CCCc1ccc(-c2ccccc2)cc1)P(=O)(O)O` (configuration not stated) yielded an IC50 of 2200 nM.

For the compound `CC(C)=CCC/C(C)=C/CC(P(=O)(O)O)P(=O)(O)O`, the ED50 entry in test [4] is “inactive”. Further, the IC50 in test [2] turned out to be 35.5 nM.

`CC(C)=CCC/C(C)=C/CCCCCCCC(P(C)(=O)O)P(=O)(O)O` (configuration not stated) showed a 50% inhibitory concentration (IC50) in test [2] of 8.7 nM.

As for `CC(C)=CCC/C(C)=C/CCCCCCC(P(=O)(O)O)P(=O)(O)O`, in test [2], the IC50 amounted to 17.6 nM. The same compound registered an inhibition in test [5] of 25%.

On to `CC(C)=CCC/C(C)=C/CCCCC(P(C)(=O)O)P(=O)(O)O` (configuration not stated), for which the IC50 in test [2] was determined as 605 nM.

Consider `CC(C)=CCC/C(C)=C/CCCC([PH](=O)O)P(=O)(O)O` (configuration not stated), for which 4 nM corresponded to half-maximal inhibition in test [2] (IC50).

`COCP(=O)(O)C(CCC/C=C(\C)CCC=C(C)C)P(=O)(O)O` (configuration not stated) came in with an IC50 in test [2] of 13.1 nM. This IC50 lies about 3.3-fold higher than the previous one.

For `COCP(=O)(O)C(CCCc1ccc(-c2ccccc2)cc1)P(=O)(O)O` (configuration not stated), the concentration for half-maximal inhibition (IC50) in test [2] is 14.8 nM.

In test [2], `CC(C)=CCC/C(C)=C/CC/C(C)=C/CC(P(C)(=O)O)P(=O)(O)O` (configuration not stated) had a half-inhibitory concentration (IC50) of 106 nM.

Compound `CC(C)=CCC/C(C)=C/CCCCCCCC(P(=O)(O)O)P(=O)(O)O` yielded an ED50 in test [1] of 0.05 mg/kg. Moreover, the ED50 entry in test [6] is “inactive”. The IC50 in test [2] is 4.2 nM.

The compound `CC(C)=CCC/C(C)=C/CC(P(C)(=O)O)P(=O)(O)O` (configuration not stated) came in with a half-maximal inhibitory concentration (IC50) in test [2] of 8600 nM.

On to `CC(C)=CCC/C(C)=C/CC/C(C)=C/CCCCC(P(C)(=O)O)P(=O)(O)O` (configuration not stated), for which the half-maximal inhibitory concentration (IC50) in test [2] came to 6.5 nM.

In turn, `CC(C)=CCC/C(C)=C/CCC(P(=O)(O)O)P(=O)(O)O` came in with an IC50 in test [2] of 77.7 nM.

In the case of `CC(C)=CCC/C(C)=C/CC/C(C)=C/CC(P(=O)(O)O)P(=O)(O)O`, the midpoint of inhibition in test [2], the IC50, lay at 32.4 nM. Compared with the last compound, the IC50 is about 2.4-fold lower.

With `CC(C)=CCC/C(C)=C/CCCCCC(P(=O)(O)O)P(=O)(O)O`, the ED50 in test [1] worked out at 0.04 mg/kg; in test [7], 1.1 mg/kg. In addition, it took 2.5 nM to reach half-maximal inhibition in test [2] (IC50).

On to `COCP(=O)(O)C(CCC/C=C(\C)CC/C=C(\C)CCC=C(C)C)P(=O)(O)O` (configuration not stated), for which it took 6.5 nM to reach half-maximal inhibition in test [2] (IC50).

Turning to `CC(C)=CCC/C(C)=C/CC/C(C)=C/CCCC(P(=O)(O)O)P(=O)(O)CO` (configuration not stated), inhibition in test [2] was half-maximal at 4.7 nM (IC50). This IC50 and that of the compound before are within 1.5-fold of each other.

Take `CC(C)=CCC/C(C)=C/CCCC(C(=O)O)P(=O)(O)O` (configuration not stated): it took 1650 nM to reach half-maximal inhibition in test [2] (IC50).

`CC(C)=CCC/C(C)=C/CCCCCC(P(C)(=O)O)P(=O)(O)O` (configuration not stated) came in with an IC50 in test [2] of 30.7 nM.

Consider `CC(C)=CCCCC(P(=O)(O)O)P(=O)(O)O`, for which the half-maximal inhibitory concentration (IC50) in test [2] was 6600 nM. Against the preceding compound, the IC50 is about 210-fold higher.

`CC(C)=CCC/C(C)=C/CCCC(P(C)(=O)O)P(=O)(O)O` (configuration not stated) showed an IC50 in test [2] of 81 nM.

In the case of `CC(C)=CCC/C(C)=C/CCCCC(P(=O)(O)O)P(=O)(O)O`, in test [2], the midpoint of inhibition, the IC50, lay at 2.6 nM.

`CC(C)=CCC/C(C)=C/CC/C(C)=C/CCCC(C(=O)O)P(=O)(O)O` (configuration not stated) yielded an IC50 in test [2] of 880 nM.

Consider `CC(C)=CCC/C(C)=C/CCCC(P(=O)(O)O)P(=O)(O)CO` (configuration not stated), for which the 50% inhibitory concentration (IC50) in test [2] is 38.7 nM.
